Experimental data taken from patent publication US20180214400A1, “THE USE OF KAURANES COMPOUNDS IN THE MANUFACTURE OF MEDICAMENT FOR TREATMENT OF CADIAC HYPERTROPY AND PULMONARY HYPERTENSION” (KEY-PHARMA BIOMEDICAL INC., priority 2015, published 2018).

Assays:
[1] = large amount, certain condition in vitro; cited from earlier work
[2] = test system: acute ischemia-reperfusion heart injuries; settings: cited from earlier work
[3] = test system: cGMP; experiment: cGMP ELISA in neonatal rat fibroblasts; format: cell-based; settings: 3 h
Procedure: Neonatal rat cardiac fibroblasts were isolated from 1-2-day-old Sprague-Dawley rats as described previously. Briefly, hearts from newborn 1-2-day-old Sprague-Dawley rats were minced on ice, and cells were isolated by trypsin incubation at 37° C. Non-cardiomyocytes were separated from the cardiomyocytes by differential pre-plating, and then cardiomyocytes were removed with fibroblasts seeded in culture dishes. The cells were passaged after 3 days, using a 0.05% trypsin solution. Cells were cultured in DEME/F12 medium with 5% fetal calf serum, and maintained at 37° C., 5% CO2 condition. cGMP levels in the neonatal rat fibroblasts after treated with vehicle or compound A or sildenafil were measured with an ELISA kit following the manufacture's instruction. Quiescent cells were cultured with different doses of compound A ([…]) or sildenafil ([…]) for 3 h. After treatment, the cells were lysed with 0.1N HCl, and performed cGMP ELISA assay.

[4] = test system: Diabetic cardiomyopathy (DCM) rats; experiment: Streptozotocin-induced diabetic cardiomyopathy; format: in vivo, Wistar rats; settings: STZ diabetes, 12-16 weeks; for cardiac function comparing to group B: pressure-volume system
Procedure: Diabetic cardiomyopathy (DCM) Diabetic induced injury to the myocardium. DCM, induced by streptozotocin (STZ), along with the associated changes occurring in inflammation, oxidative stress and fibrosis markers. Wistar rats were randomly divided into four groups: group A (Normal control), group B (Diabetes), group […] group D (DM/TMZ, trimetazidine treatment). After 12-16 weeks, left ventricular function was measured by the pressure-volume system. Cardiac tissues were prepared for histological study by hematoxlyin and eosin, Sirius red staining as well as for assays of oxidative stress. Oxidative stress, inflammation, and fibrosis markers were evaluated by molecular biological techniques. All data were measured morphometrically and statistically analyzed.

[5] = Solubility of compound A sodium; format: physicochemical
Text: Only organic solvent which are already approved by FDA for i.v. administration were used for increasing solubility of compound A. After extensive screening of several solvents, the invention disclosed an optimized solvent system for compound A, which composed of saline at pH 10.0, 25% of ethanol and 20% of propylene glycol (2%, w/w) (compound A sodium).

SMILES: C=C1C[C@@]23CC[C@H]4[C@@](C)(CCC[C@@]4(C)C(=O)O)[C@@H]2CC[C@]1(O)C3 (single isomer, unassigned; ent-13) [Compound B, ent-13-hydroxykaur-16-en-18-oic acid]
- mutagenicity [1]: may be mutagenic
- cardioprotective effect and arrhythmia [2]: cardioprotective effect

SMILES: CC12CCC3C(CCC4C(C)(C(=O)[O-])CCCC34C)(CC1=O)C2.[Na+] (stereo not shown) [Compound A-1Na]
- Stimulated production of cGMP ([3]; 1 um): 157 ± 43%
- Stimulated production of cGMP ([3]; 10 um): 207 ± 54%
- blood glucose level and insulin levels comparing to Diabetes group [4]: no significant changes
- cardiac function comparing to group B [4]: significantly improved
- solubility of sodium salt relative to compound A [5]: better solubility

SMILES: COc1ccc(CN2CCNCC2)c(OC)c1OC [TMZ, trimetazidine, reference compound]
- blood glucose level and insulin levels comparing to Diabetes group [4]: no significant changes
- cardiac hypertrophy [4]: significant inhibited
- cardiac function comparing to group B [4]: significantly improved
